Common to all, as to assay: DTP human tumour cell line panel, 48 h
Assay [1] deals with HCT-116 colon.
The subject of assay [2] is MCF7 breast.
Assay [3] deals with MDA-N.
Assay [4] deals with MOLT-4 leukemia.
Assay [5] concerns OVCAR-3 ovarian.
Assay [6] deals with OVCAR-8 ovarian.
In assay [7] the test system is PC-3 prostate.
Assay [8] deals with RPMI-8226 leukemia.
Assay [9] has as its system SK-MEL-28 melanoma.
For assay [10], the system named is TK-10 renal.

Results on 29 compounds are retold here after PubChem BioAssay (NCI).

Where “and” joins values, the source holds several entries; their conditions need not be identical. Equal values may be shown once.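 Briefly, cells in 96-well plates were exposed to five compound concentrations for 48 h, and endpoints were estimated by linear interpolation. Here, GI50 denotes the concentration required for 50% inhibition of growth. TGI marks complete inhibition of growth.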 Where a SMILES comes first, the peptide text is derived from it. [ ]: non-standard residue; d: D form. The star is where a group is joined. Bn2Val = CC(C)[C@@H](C(=O)*)N(Cc1ccccc1)Cc1ccccc1; NMeV = CN[C@H](C(=O)O)C(C)C; X29 = COc1ccc(CN*)c(OC)c1; dNMeA = CN[C@H](C)C(=O)O; Boc = CC(C)(C)OC(=O)*; OBn = c1ccc(CO*)cc1

For `O=C1CC(C(CC(=O)c2ccccc2)c2ccccc2)C(=O)c2ccccc2N1` (centres undefined), the TGI is > 100 µM in [1]; 80.1 µM in [2]; > 100 µM in assay [3]; 61.2 µM in [4]; > 100 µM in [5]; > 100 µM in assay [6]. In addition, the TGI in assay [7] and in [8] was > 100 µM in each case.
As to `Cc1ccc(S(=O)(=O)NC(=O)NC(CCCCN=C(N)N)C(=O)O)cc1` (centres undefined), the TGI in [1], in assay [2], in assay [3], in assay [4], in [6] and in assay [7] was > 100 µM throughout. Also, the TGI in [8], in [9] and in assay [10] was > 100 µM each time.
For the compound `Cn1c([C@H](C#N)C(=O)c2cc(O)ccc2[N+](=O)[O-])nc2ccccc21`, the total growth inhibition concentration (TGI) in [1], in assay [2], in assay [3], in [4], in [5] and in assay [6] was > 100 µM throughout. Moreover, the concentration for total growth inhibition (TGI) in assay [7], in [8], in assay [9] and in [10] was > 100 µM each time.
For `Cc1nnc2n(c1=O)CCN2C`, the TGI in [1], in [2], in assay [3], in assay [4], in [5] and in assay [6] was > 100 µM throughout. For the same compound, the TGI in assay [7], in assay [8], in assay [9] and in assay [10] was > 100 µM in each case.
Regarding `CCN(CC)CCCNC(=O)c1cc2cc(NC(=O)c3cc4cc([N+](=O)[O-])ccc4[nH]3)ccc2[nH]1`, the TGI in [1] was > 100 µM; in assay [2] it was > 100 µM; in assay [3], > 100 µM; in assay [5], 75.8 µM; in assay [6], > 100 µM; in [7], > 100 µM. For the same compound, the TGI in assay [8], in [9] and in assay [10] was > 100 µM in each case.
In the case of `Cc1c(OCc2ccccc2)c(=O)ccn1CCc1c[nH]c2ccccc12`, the concentration for total growth inhibition (TGI) in assay [1] was > 100 µM; in [2], 42.9 µM; in [3], 79.9 µM; in [4] it was 31.9 µM; in assay [5] it was 51.4 µM; in assay [6] it was > 100 µM. In addition, the values for the total growth inhibition concentration (TGI) in assay [7], in [8] and in assay [10] were > 100 µM, 59.3 µM and > 100 µM, respectively.
On to `C=C1[C@@](C)([C@@H]2CCCS2)[C@H]2C(C)=C[C@]1(C)n1c(=O)n(-c3ccccc3)c(=O)n12`, for which the TGI in assay [1], in [2], in [3], in assay [4], in assay [5] and in assay [7] was > 100 µM in each case. Further, the TGI in [8], in [9] and in assay [10] was > 100 µM throughout.
With `OCC(CCc1ccccc1I)C1=CCC2(CC1)OCCO2` (centres undefined), the concentration for total growth inhibition (TGI) in assay [2] is 55.1 µM; in assay [3], 36.5 µM; in [4] it was > 100 µM; in [5] it was 41.3 µM; in assay [6] it was 43.1 µM; in assay [7] it was 52.5 µM. In addition, the TGI in assay [8] was > 100 µM; in assay [9], 35 µM; in assay [10], 50.7 µM.
Take `COC(=O)[C@@](C)(COC(=O)C(C)(C)C)NC(=O)OC(C)(C)C`: the TGI in assay [1], in [2], in [3], in assay [4], in [6] and in assay [7] was > 100 µM each time. Besides, the concentration for total growth inhibition (TGI) in assay [8], in [9] and in assay [10] was > 100 µM throughout.
On to `COC(=O)CCc1c(Cc2ccc[nH]2)[nH]c(C(=O)OCc2ccccc2)c1C`, for which the concentration for total growth inhibition (TGI) in assay [1] amounted to 32.9 µM; in assay [2], 35.7 µM; in assay [3], 34.4 µM; in assay [4] it was 52.7 µM; in assay [5], 31 µM; in assay [6] it was 52.5 µM. Besides, the TGI in assay [7] amounted to 60 µM; in assay [8] it was 76.5 µM; in [9], 39.7 µM; in assay [10], 76.2 µM.
Regarding `NC(=O)c1cc(N(CCO)CCO)c([N+](=O)[O-])cc1[N+](=O)[O-]`, the TGI in [1], in assay [2], in assay [3], in [4], in assay [5] and in [7] was > 100 µM in each case. Also, the total growth inhibition concentration (TGI) in assay [8], in assay [9] and in assay [10] was > 100 µM throughout.
For `COc1ccc(C2OCCN2C)cc1` (centres undefined), the total growth inhibition concentration (TGI) in [1], in assay [2], in [3], in assay [4], in assay [5] and in assay [6] was > 100 µM in each case. The TGI in [7], in [8] and in [10] was > 100 µM in each case.
As for `CCOC(=O)C(NC(=O)CC)(Nc1ccc(S(=O)(=O)Nc2onc(C)c2C)cc1)C(F)(F)F` (centres undefined), the TGI in assay [1], in assay [2], in [3], in [4], in assay [5] and in assay [6] was > 100 µM throughout. The concentration for total growth inhibition (TGI) in assay [7], in [8] and in assay [9] was > 100 µM throughout.
For `CC(=O)OC1C2CCC3C(C)(O)C4CC(O)C(C)(C)C4(O)C(O)CC13CC2(C)O` (centres undefined), the TGI in assay [1], in assay [2], in [3], in assay [5], in assay [6] and in assay [7] was > 100 µM each time. Besides, the TGI in assay [8] and in [10] was > 100 µM in each case.
Take `COc1ccc(CNC(=O)[C@@H]2CCCN2C(=O)[C@@H](C)N(C)C(=O)[C@H](C(C)C)N(C)C(=O)[C@@H](NC(=O)[C@H](C(C)C)N(Cc2ccccc2)Cc2ccccc2)C(C)C)c(OC)c1` (Bn2Val-V[NMeV][dNMeA]P-X29): the concentration for total growth inhibition (TGI) in [1] amounted to 9.62 µM; in assay [2] it was 12 µM; in assay [3] it was 5.78 µM; in [5], 14.7 µM; in assay [6], 57.6 µM; in assay [7], 10.1 µM. For the same compound, the results for the TGI in assay [8], in assay [9] and in assay [10] were 17.2 µM, 10.2 µM and 22.4 µM, respectively.
For `CCOc1ccc(N=NC2C(=O)N(C(=O)CC(=O)Nc3ccccc3)N=C2C)cc1` (centres undefined), the TGI in assay [1] was > 100 µM; in assay [2], > 100 µM; in [3], 21.5 µM; in assay [4], > 100 µM; in assay [5], > 100 µM; in [6] it was > 100 µM. For the same compound, the concentration for total growth inhibition (TGI) in [7], in assay [9] and in assay [10] was > 100 µM each time.
`N=C(N)SCCC(=O)CCSC(=N)N`: the TGI in assay [1], in [2], in assay [3], in [4], in assay [5] and in [6] was > 100 µM each time. Further, the TGI in assay [7], in [9] and in [10] was > 100 µM each time.
For the compound `CCCC1C(=O)Nc2cccc3ncn(c23)C1=O` (centres undefined), the concentration for total growth inhibition (TGI) in [1], in assay [2], in [3], in assay [4], in [5] and in [6] was > 100 µM in each case. In addition, the total growth inhibition concentration (TGI) in [7], in assay [8] and in [9] was > 100 µM in each case.
Take `CC1(C)C(CCO)CC1n1ccc(=O)[nH]c1=O` (centres undefined): the TGI in assay [1], in [2], in assay [3], in [5], in assay [7] and in assay [9] was > 100 µM each time. For the same compound, in assay [10], the TGI was > 100 µM.
Turning to `COCC1OC(S(=O)(=O)c2ccccc2)C(O)C(OC)C1OC` (centres undefined), the TGI in [1], in assay [2], in [3], in assay [4], in [5] and in assay [6] was > 100 µM each time. For the same compound, the total growth inhibition concentration (TGI) in assay [7], in [9] and in [10] was > 100 µM each time.
With `O=S(=O)(c1ccc(-c2nnc(-c3ccc(F)cc3)o2)cc1)c1ccc(-c2nnc(-c3ccc(F)cc3)o2)cc1`, the total growth inhibition concentration (TGI) in assay [1], in assay [2], in assay [3], in assay [4], in assay [5] and in assay [6] was > 100 µM each time. The TGI in assay [7] and in [8] was > 100 µM in each case.
As to `O=S(=O)(O)c1cccc2cccc(N=Nc3c(O)ccc4ccccc34)c12`, the TGI in assay [1], in assay [2], in [3], in assay [4], in [5] and in assay [6] was > 100 µM throughout. In addition, the TGI in assay [7] and in assay [10] was > 100 µM each time.
`O=C1CC(C(OCc2ccccc2)C(OCc2ccccc2)C(COCc2ccccc2)OCc2ccccc2)CC(=O)N1` (centres undefined): the concentration for total growth inhibition (TGI) in assay [1], in assay [2], in [3], in [4], in assay [6] and in [7] was > 100 µM each time. In addition, the TGI in assay [8], in assay [9] and in assay [10] was > 100 µM throughout. In assay [4], the GI50 is > 100 µM and 37.7 µM.
Regarding `C=C[C@@]1(O)CCCC[C@@H]1CC(Sc1ccccc1)Sc1ccccc1`, the TGI in [1] is 31.4 µM; in assay [2], > 100 µM; in assay [3] it was 44.8 µM; in assay [4], > 100 µM; in [6], 34.1 µM; in assay [7] it was 29.1 µM. Further, the TGI in assay [8] was determined as 90.2 µM; in assay [9], 86.8 µM; in assay [10], 30.9 µM.
With `CC(C)CC(NC(=O)OC(C)(C)C)C(=O)NC(CC(=O)OCc1ccccc1)C(=O)OCc1ccccc1` (stereo not drawn) (Boc-Leu-Asp(OBn)-OBn; configuration not given here), the concentration for total growth inhibition (TGI) was > 100 µM in assay [1]; > 100 µM in assay [2]; > 100 µM in assay [3]; 76.9 µM in assay [4]; 49.6 µM in [5]; > 100 µM in assay [6]. In addition, the TGI was 84.8 µM in assay [7], 97.3 µM in assay [8] and 60.9 µM in [10].
For `CN1N=C(c2ccncc2)OC1c1cccc(C(F)(F)F)c1` (centres undefined), the concentration for total growth inhibition (TGI) in [1], in assay [3], in assay [4], in [5], in assay [6] and in [7] was > 100 µM in each case. In addition, the TGI in assay [8], in [9] and in assay [10] was > 100 µM in each case.
In the case of `CC12CCCCC1=[N+]([O-])C(C)(C)N2O` (centres undefined), the TGI in assay [1], in assay [2], in assay [3], in [5], in assay [6] and in assay [7] was > 100 µM throughout. The TGI in assay [8], in assay [9] and in assay [10] was > 100 µM in each case.
As to `COc1ccccc1N=Nc1c(O)c(S(=O)(=O)O)cc2cc(S(=O)(=O)O)ccc12`, the total growth inhibition concentration (TGI) in assay [1], in assay [3], in [4], in assay [5], in assay [6] and in assay [7] was > 100 µM throughout. The TGI in [8], in assay [9] and in assay [10] was > 100 µM each time.
On to `CC(=O)NC1=C(NCCCl)C(=O)c2ccccc2C1=O`, for which the TGI in assay [1] is 48.1 µM; in [2], > 100 µM; in assay [3], 38.3 µM; in assay [4] it was 75.5 µM; in assay [5] it was > 100 µM; in [6], 52.4 µM. Also, the TGI in [7] was 96.2 µM; in [8], > 100 µM; in assay [9], > 100 µM.

Broadly, the TGI is the concentration at which net growth stops. Usually GI50 stands for the concentration giving 50% growth inhibition.
